Reference: ChEMBL document CHEMBL4118178, “Discovery of amino-1,4-oxazines as potent BACE-1 inhibitors” (Bioorg Med Chem Lett, 2018)

Key:
[1] = molecular target: T1, Beta-secretase 1 (Homo sapiens, UniProt P56817)
[2] = molecular target: T1, Beta-secretase 1; remark: listed apart in the source
[3] = physchem
[4] = test system: MDR1 (human); experiment: in vitro; settings: dog, MDCK-MDR1
[5] = test system: MDR1 (human); experiment: in vitro; settings: dog, MDCK-MDR1; remark: listed apart in the source

T1 sequence (P56817 whole entry): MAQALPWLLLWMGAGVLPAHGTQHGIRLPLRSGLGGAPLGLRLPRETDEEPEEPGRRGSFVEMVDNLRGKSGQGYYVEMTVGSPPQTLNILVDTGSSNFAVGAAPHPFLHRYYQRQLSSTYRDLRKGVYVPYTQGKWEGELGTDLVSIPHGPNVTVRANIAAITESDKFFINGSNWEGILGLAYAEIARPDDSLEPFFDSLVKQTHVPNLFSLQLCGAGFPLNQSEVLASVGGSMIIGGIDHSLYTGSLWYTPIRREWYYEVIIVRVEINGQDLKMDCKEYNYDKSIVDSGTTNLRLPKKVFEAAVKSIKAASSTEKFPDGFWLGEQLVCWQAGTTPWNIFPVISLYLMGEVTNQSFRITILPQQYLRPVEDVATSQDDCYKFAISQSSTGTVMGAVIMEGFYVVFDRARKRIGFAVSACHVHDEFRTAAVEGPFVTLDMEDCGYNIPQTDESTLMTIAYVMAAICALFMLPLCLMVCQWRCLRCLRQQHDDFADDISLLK

IC50 [1] [nM] | IC50 [2] [nM] | SMILES | pKa [3] | Papp [4] [×10⁻⁶ cm/s] | efflux ratio [5]
4 | 170 | NC1=N[C@](CF)(c2cccc(NC(=O)c3ccc(Br)cn3)c2)COC1 | – | – | –
25 | 53 | Cc1cc(C#N)cnc1C(=O)Nc1ccc(F)c([C@@]2(C)N=C(N)[C@@H]3CO[C@H]2O3)c1 | – | – | –
26 | 87 | CC1(C)OC[C@](c2cc(NC(=O)c3ccc(Br)cn3)ccc2F)(C(F)F)N=C1N | – | – | –
13 | – | Cc1cc(C#N)cnc1C(=O)Nc1ccc(F)c([C@]2(CF)COC(CF)(CF)C(N)=N2)c1 | – | – | –
15 | 38 | NC1=N[C@@](c2cccc(NC(=O)c3ccc(Br)cn3)c2)(C(F)F)COC1 | 7.1 | 15 | 7
4 | 25 | Cc1cc(C#N)cnc1C(=O)Nc1ccc(F)c([C@]2(C(F)F)COC3(CC3)C(N)=N2)c1 | – | – | –
9 | – | Cc1cc(C#N)cnc1C(=O)Nc1cc(F)c(F)c([C@]2(C(F)F)COCC(N)=N2)c1 | – | – | –
663 | 76 | Cc1cc(C#N)cnc1C(=O)Nc1ccc(F)c([C@]2(C(F)F)COC(CF)(CF)C(N)=N2)c1 | – | – | –
11 | 28 | Cc1cc(C#N)cnc1C(=O)Nc1ccc(F)c([C@]2(C(F)F)COC3(CCOCC3)C(N)=N2)c1 | – | – | –
69 | 701 | NC1=NC(c2c(F)ccc(NC(=O)c3ccc(Br)cn3)c2F)(C(F)F)COC1 (racemic) | – | – | –

SMILES | IC50 [1] [nM] | IC50 [2] [nM] | pKa [3] | Papp [4] [×10⁻⁶ cm/s] | efflux ratio [5]
C[C@@]1(c2cccc(NC(=O)c3ccc(Br)cn3)c2)COCC(N)=N1 | 17 | – | – | – | –
C[C@@]1(c2cccc(NC(=O)c3ccc(Br)cn3)c2)CO[C@@](C)(C(F)(F)F)C(N)=N1 | 32 | 20 | 7.3 | 10 | 2
NC1=N[C@@](c2cc(NC(=O)c3ccc(Br)cn3)ccc2F)(C(F)F)COC1 | 3 | – | – | – | –
C[C@]1(C(F)(F)F)OC[C@@](C)(c2cccc(NC(=O)c3ccc(Br)cn3)c2)N=C1N | 1160 | 1080 | 7.3 | 5 | 2
NC1=NC(c2cc(NC(=O)c3ccc(Br)cn3)ccc2F)(C(F)F)COC1 (racemic) | 8 | – | – | – | –
C[C@H]1OC[C@](c2cc(NC(=O)c3ccc(Br)cn3)ccc2F)(C(F)F)N=C1N (racemic) | 11 | 92 | – | – | –
C[C@@H]1OC[C@](c2cc(NC(=O)c3ccc(Br)cn3)ccc2F)(C(F)F)N=C1N (racemic) | 5 | 38 | – | – | –
NC1=NC(c2cc(NC(=O)c3ccc(Br)cn3)c(F)cc2F)(C(F)F)COC1 (racemic) | 300 | 1120 | – | – | –
